In US11691986B2, “PTEFB inhibiting macrocyclic compounds” (Bayer Aktiengesellschaft, priority 2017, dated 2023):

How the values were obtained:
HeLa-MaTu-ADR cells = assay: Proliferation assay, HeLa-MaTu-ADR (crystal violet); assay type: cell-based; settings: Homo sapiens, 96 h, 4 days, read-out: Inhibition of HeLa-MaTu-ADR cell proliferation IC50
Procedure: (§1) Cultivated tumour cells (HeLa, human cervical tumour cells, ATCC CCL-2; NCI-H460, human non-small cell lung carcinoma cells, ATCC HTB-177; DU 145, hormone-independent human prostate carcinoma cells, ATCC HTB-81; HeLa-MaTu-ADR, multidrug-resistant human cervical carcinoma cells, EPO-GmbH Berlin; Caco-2, human colorectal carcinoma cells, ATCC HTB-37; B16F10, mouse melanoma cells, ATCC CRL-6475) were plated at a density of 5,000 cells/well (DU145, HeLa-MaTu-ADR), 3,000 cells/well (NCI-H460, HeLa), 1,500 cells/well (Caco-2), or 1,000 cells/well (B16F10) in a 96-well multititer plate in 200 μL of their respective growth medium supplemented 10% fetal calf serum. After 24 hours, the cells of one plate (zero-point plate) were stained with crystal violet (see below), while the medium of the other plates was supplemented with the test substances in various concentrations (0 μM, as well as in the range of 0.0001-10 μM; the final concentration of the solvent dimethyl sulfoxide was adjusted to 0.1%) using a Hewlett-Packard HP D300 Digital Dispenser. The cells were incubated for 4 days in the presence of test substances. Cell proliferation was determined by staining the cells with crystal violet: the cells were fixed by adding 20 μl/measuring point of an 11% glutaric aldehyde solution for 15 minutes at room temperature. After three washing cycles of the fixed cells with water, the plates were dried at room temperature. The cells were stained by adding 100 μl/measuring point of a 0.1% crystal violet solution (pH 3.0). After three washing cycles of the stained cells with water, the plates were dried at room temperature. The dye was dissolved by adding 100 μl/measuring point of a 10% acetic acid solution. The extinction was determined by photometry at a wavelength of 595 nm. The change of cell number, in percent, was calculated by normalization of the measured values to the extinction values of the zero-point plate (=0%) and the extinction of the untreated (0 Wm) cells (=100%). The IC50 values (inhibitory concentration at 50% of maximal effect) were determined by means of a 4 parameter fit.

NCI-H460 cells = assay: Proliferation assay, NCI-H460 (crystal violet); assay type: cell-based; settings: Homo sapiens, 96 h; NCI-H460, 4 days; read-out: Inhibition of NCI-H460 cell proliferation IC50
Procedure: as §1

DU145 cells = assay: Proliferation assay, DU145 (crystal violet); assay type: cell-based; settings: Homo sapiens, DU-145, 96 h; DU145, 4 days; read-out: Inhibition of DU145 cell proliferation IC50
Procedure: as §1

B16F10 cells = assay: Proliferation assay, B16F10 (crystal violet); assay type: cell-based; settings: Mus musculus, B16-F10, 96 h; B16F10, 4 days; read-out: Inhibition of B16F10 cell proliferation IC50
Procedure: as §1

A2780 cells = assay: Proliferation assay, A2780 (Cell Titre-Glo); assay type: cell-based; settings: Homo sapiens; A2780, 72-hour exposure; read-out: Inhibition of A2780 cell proliferation IC50
Procedure: (§2) A2780 human ovarian carcinoma cells (ECACC #93112519) and non-adherent MOLM-13 human acute myeloid leukemia cells (DSMZ ACC 554) were seeded at a density of 3,000 cell/well (A2780) or 5,000 cells/well (MOLM-13) in a 96-well multititer plate in 150 μL of growth medium supplemented 10% fetal calf serum. After 24 hours, cell viability of one plate (zero-point plate) was determined with the Cell Titre-Glo Luminescent Cell Viability Assay (Promega), while the medium of the other plates was supplemented with the test substances in various concentrations (0 μM, as well as in the range of 0.0001-10 μM; the final concentration of the solvent dimethyl sulfoxide was adjusted to 0.1%) using a Hewlett-Packard HP D300 Digital Dispenser. Cell viability was assessed after 72-hour exposure with the Cell Titre-Glo Luminescent Cell Viability Assay (Promega). IC50 values (inhibitory concentration at 50% of maximal effect) were determined by means of a 4 parameter fit on measurement data which were normalized to vehicle (DMSO) treated cells (=100%) and measurement readings taken immediately before compound exposure (=0%).

MOLM-13 cells = assay: Proliferation assay, MOLM-13 (Cell Titre-Glo); assay type: cell-based; settings: Homo sapiens; MOLM-13, 72-hour exposure; read-out: Inhibition of MOLM-13 cell proliferation IC50
Procedure: as §2

[1] = target: T1, human PTEFb (CDK9/Cyclin T1) (Homo sapiens, UniProt P50750); assay: Surface Plasmon Resonance PTEFb; assay type: binding; settings: SPR, 37° C.; for residence time: 1/koff, read-out: Target residence time; for residence time / koff: * = arithmetic mean; for Kd: * = arithmetic mean of more than one value, read-out: Equilibrium dissociation constant KD; for koff: < = below what is resolvable, read-out: Dissociation rate constant koff
T1 construct: purchased ProQinase, Freiburg, Germany
T1 sequence (P50750 whole entry): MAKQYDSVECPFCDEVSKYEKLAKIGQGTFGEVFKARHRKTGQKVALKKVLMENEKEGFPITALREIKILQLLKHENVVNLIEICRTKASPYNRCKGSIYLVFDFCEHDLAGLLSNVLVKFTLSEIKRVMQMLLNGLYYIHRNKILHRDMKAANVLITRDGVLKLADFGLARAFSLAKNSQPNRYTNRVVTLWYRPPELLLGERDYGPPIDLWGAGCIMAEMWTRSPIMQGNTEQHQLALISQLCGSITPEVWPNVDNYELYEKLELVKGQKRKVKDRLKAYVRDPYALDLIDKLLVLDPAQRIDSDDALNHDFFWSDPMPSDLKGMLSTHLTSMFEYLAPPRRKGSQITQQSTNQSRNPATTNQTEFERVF
T1 sequence (O60563 whole entry partner): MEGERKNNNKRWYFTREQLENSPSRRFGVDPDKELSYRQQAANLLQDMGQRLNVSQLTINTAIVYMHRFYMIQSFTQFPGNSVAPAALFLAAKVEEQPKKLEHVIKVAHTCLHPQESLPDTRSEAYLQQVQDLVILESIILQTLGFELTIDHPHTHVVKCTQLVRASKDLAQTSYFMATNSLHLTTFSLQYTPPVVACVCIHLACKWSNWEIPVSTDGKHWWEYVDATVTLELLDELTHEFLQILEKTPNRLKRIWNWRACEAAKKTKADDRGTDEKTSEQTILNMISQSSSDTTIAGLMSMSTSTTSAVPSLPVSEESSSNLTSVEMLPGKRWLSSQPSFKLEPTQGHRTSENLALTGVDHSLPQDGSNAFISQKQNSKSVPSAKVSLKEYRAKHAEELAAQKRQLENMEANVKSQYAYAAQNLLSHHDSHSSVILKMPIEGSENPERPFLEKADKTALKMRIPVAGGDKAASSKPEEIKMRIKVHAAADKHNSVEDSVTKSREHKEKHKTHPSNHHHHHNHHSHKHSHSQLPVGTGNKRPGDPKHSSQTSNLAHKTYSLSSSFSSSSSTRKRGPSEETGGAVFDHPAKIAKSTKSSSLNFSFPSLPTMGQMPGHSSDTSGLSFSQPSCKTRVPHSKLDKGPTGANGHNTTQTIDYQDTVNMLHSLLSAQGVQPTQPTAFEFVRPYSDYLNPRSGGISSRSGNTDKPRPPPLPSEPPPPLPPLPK
Text: 8. Surface Plasmon Resonance PTEFb
The ability of the compounds according to the invention to bind human PTEFb may be determined using surface plasmon resonance (SPR). KD values and koff values may be measured using a Biacore® T200 instrument (GE Healthcare, Uppsala, Sweden).
For SPR measurements, recombinant human PTEFb (CDK9/Cyclin T1 recombinant human active protein kinase purchased from ProQinase, Freiburg, Germany) is immobilized using standard amine coupling (Johnsson B et al, Anal Biochem. 1991 Nov. 1; 198(2):268-77). Briefly, carboxymethylated dextran biosensor chips (CM7, GE Healthcare) are activated with N-ethyl-N′-(3-dimethylaminopropyl)-carbodiimide hydrochloride (EDC) and N-hydroxysuccinimide (NHS) according to the supplier's instructions. Human PTEFb is diluted in 1×HBS-EP+(GE Healthcare) and injected on the activated chip surface. Subsequently, a 1:1 solution of 1 M ethanolamine-HCl (GE Healthcare) and 1×HBS-EP is injected to block unreacted groups, resulting in approximately 4000 response units (RU) of immobilized protein. A reference surface is generated by treatment with NHS-EDC and ethanolamine-HCl. Compounds are dissolved in 100% dimethylsulfoxide (DMSO, Sigma-Aldrich, Germany) to a concentration of 10 mM and subsequently diluted in running buffer (1×HBS-EP+pH 7.4 [generated from HBS-EP+Buffer 10×(GE Healthcare): 0.1 M HEPES, 1.5 M NaCl, 30 mM EDTA and 0.5% v/v Surfactant P20], 1% v/v DMSO). For kinetic measurements, serial dilutions of compound (0.078 nM up to 25 nM) are injected over immobilized protein. Binding kinetics is measured at 37° C. with a flow rate of 100 μl/min in running buffer. Compound concentrations are injected for 70 s followed by a dissociation time of 1100 s. The resulting sensorgrams are double-referenced against the reference surface as well as against blank injections.
The double-referenced sensorgrams are fit to a simple reversible Langmuir 1:1 reaction mechanism as implemented in the Biacore® T200 evaluation software 2.0 (GE Healthcare). In cases were full compound dissociation has not occurred at the end of the dissociation phase, the Rmax parameter (response at saturation) is fit as local variable. In all other cases, Rmax is fit as global variable.

Row | IC50 (HeLa-MaTu-ADR cells) | IC50 (NCI-H460 cells) | IC50 (DU145 cells) | IC50 (B16F10 cells) | IC50 (A2780 cells) | IC50 (MOLM-13 cells) | residence time [1] | Kd [1] | koff [1] | Compound
1 | 5.3 nM | 9.2 nM | 4.5 nM | 1.2 nM | 1.2 nM | 2 nM | > 208 min | 0.074 nM | < 8e-05 s⁻¹ | CS(=N)(=O)Cc1cc2cc(c1)OCCCCNc1cc(ccc1F)-c1nc(ncc1F)N2 (racemic) [Example 2, (rac)-3,20-difluoro-10-[(S-methylsulfonimidoyl)methyl]-13-oxa-5,7,18,25-tetraazatetracyclo[17.3.1.1^2,6.1^8,12]pentacosa-1(23),2(25),3,5,8(24),9,11,19,21-nonaene]
2 | 23 nM | 25 nM | 17 nM | 25 nM | 5.9 nM | 5.8 nM | 13 min | 0.38 nM | 0.0012 s⁻¹ | CS(=N)(=O)Cc1cc2cc(c1)OCCCNc1cc(ccc1F)-c1nc(ncc1F)N2 (racemic) [Example 3, (rac)-3,19-difluoro-10-[(S-methylsulfonimidoyl)methyl]-13-oxa-5,7,17,24-tetraazatetracyclo[16.3.1.1^2,6.1^8,12]tetracosa-1(22),2(24),3,5,8(23),9,11,18,20-nonaene]
3 | – | – | – | – | 7.7 nM | – | 33 min | 0.28 nM | 0.0005 s⁻¹ | CC1CCCNc2cc(ccc2F)-c2nc(ncc2F)Nc2cc(CS(C)(=O)=O)cc(c2)O1 (racemic) [Example 8, (rac)-3,20-difluoro-14-methyl-10-[(methylsulfonyl)methyl]-13-oxa-5,7,18,25-tetraazatetracyclo[17.3.1.1^2,6.1^8,12]pentacosa-1(23),2(25),3,5,8(24),9,11,19,21-nonaene]
4 | 46 nM | 33 nM | 36 nM | 99 nM | 13 nM | 7.1 nM | – | – | – | CC(C)(C)OC(=O)N=S(C)(=O)Cc1cc2cc(c1)OCCCCNc1cc(ccc1F)-c1nc(ncc1F)N2 (racemic) [Example 1, (rac)-tert-butyl [{[3,20-difluoro-13-oxa-5,7,18,25-tetraazatetracyclo[17.3.1.1^2,6.1^8,12]pentacosa-1(23),2(25),3,5,8(24),9,11,19,21-nonaen-10-yl]methyl}(methyl)oxido-λ^6-sulfanylidene]carbamate]
